{
  "source": "patent US20120121705A1",
  "about": "“Pharmaceutical Or Cosmetic Or Dietetic Composition Suitable For Promoting A Hair Pigmentation Effect” (priority 2009, published 2012)",
  "test_system": "hair follicle pigmentation unit",
  "assay": "Hair pigmentation: quantitative Masson-Fontana melanin staining in organ-cultured human scalp skin / hair follicles",
  "format": "cell-based",
  "settings": "spermidine 3HCl 0.1 μM, given at each medium change (every 48 hours), 6 days organ culture; compared with vehicle; FIG. 1 and FIG. 2",
  "protocol": "The skin of normal human scalp was taken from a person who had undergone a routine face lifting surgery after receiving the informed consent. All the experiments were carried out according to the Helsinki principles, with the ethical committee's approval.\nThe tissues subject to biopsy with 3-4 mm cylindrical scalpel were cultured at 37° C. for 6 days in Williams E medium (Biochrom, Cambridge, U.K.), integrated with 100 IU ml^−1 penicillin, 10 μg ml^−1 streptomycin (Gibco, Karlsruhe, Germany), 10 μg ml^−1 insulin (Sigma, Taukfirchen, Germany), 10 ng ml^−1 hydrocortisone (Sigma) and 2 mmol L^−1 (L-glutamine (Invitrogen, Paisley, U.K.). […]\nThe Masson-Fontana staining was carried out for the histochemical display of melanin on frozen sections. Melanin was stained in the form of brown granules and the pigmentation level was determined through the quantitative Masson-Fontana technique (Ito N., Ito T., Kromminga A., Bettermann A., Takigawa M., Kees F., Straub R. H., and Paus R. (2005): Human hair follicles display a functional equivalent of the hypothalamic-pituitary-adrenal axis and synthesize cortisol. FASEB J 19, 1332-4). […]\nThe staining intensity was analyzed in a defined reference region of the hair follicle pigmentation unit using the ImageJ software (National Institute of Health). […]",
  "data": [
    {"smiles": "NCCCCNCCCN", "note": "[spermidine, N-(3-aminopropyl)butan-1,4-diamine]", "values": [
      {"measurement": "pigmentation intensity in hair follicles (melanin, Masson-Fontana staining)", "result": "increase of melanin"}
    ]}
  ]
}
